One assay has as its target T1, Na^+ /H^+ exchange (Rattus norvegicus, UniProt P26431).
T1 construct: A supernatant was separated to prepare platelet-rich plasma; endogenous in cells; host or cells: platelets in platelet-rich plasma from male Wistar rats (abdominal aorta blood)
Nature of the assay: Na^+ /H^+ Exchange inhibitory activity (sodium propionate-induced swelling of platelets). It is filed as cell-based, rat (male Wistar rats). As to conditions: rat platelet-rich plasma, 37° C. The procedure: The compounds of the present invention were assessed for their Na^+ /H^+ exchange inhibitory activity based on an activity to inhibit sodium propionate-induced swelling of platelets in accordance with the method of Rosskoph et al. [Journal of Hypertension, 9, 231-238 (1991)].
First, platelet-rich plasma was prepared in accordance with the method of Mammen et al. [Diabetes Research and Clinical Practice, 9(3), 265-272 (1990)]. Briefly, male Wistar rats weighing 190 to 420 g were abdominally operated under anesthesia with ether and blood was taken from the abdominal aorta. For inhibiting blood coagulation, ACD solution (a mixture of 65 mM citric acid, 85 mM sodium citrate, 11 mM dextrose) was added to blood and this treated blood was centrifuged at 90× g for 10 minutes. A supernatant was separated to prepare platelet-rich plasma.
Then, a solution of the test compounds in dimethylsulfoxide was added to 140 mM sodium propionate buffer solution. To this mixture was added the platelet-rich plasma prepared above and a decrease in optical density was recorded with the passage of time at 37° C. using a platelet aggregometer (turbidimeter) and a X-Y recorder to calculate a decrease rate in optical density after mixing with platelet-rich plasma [decrease rate in optical density in the presence of the test compounds (D)]. On the other hand, the solvent dimethylsulfoxide alone was used instead of the solution of the test compounds and the decrease in optical density was recorded in the similar manner to calculate a decrease rate in optical density [control (C)]. A swelling inhibitory rate (%) was calculated using the following formula:
Swelling inhibitory rate (%)=(1-D/C)×100

A further assay concerns reperfusion arrhythmia. Nature of the assay: Inhibitory activity against reperfusion arrhythmia (rat acute myocardial infarction model). As to conditions: Test 3 (Table 5), femoral vein, control 171.0 ± 5.8. It is filed as in vivo, rat (male Sprague-Dawley rats). The procedure: Using a rat acute myocardial infarction model, the compounds of the present invention were assessed for their inhibitory activity against reperfusion arrhythmia in accordance with the method of […] al. [European Journal of Pharmacology, 194, 7-10 (1991)]. Male Sprague-Dawley rats (weighing 310 to 490 g) were anesthetized by intraperitoneal administration of sodium pentobarbital (50 mg/kg). Under anesthesia, the rats were cannulated via trachea and the cannula was linked to a respirator. An electrocardiogram (the lead II) was obtained from electrodes attached to the limbs using bioelectric amplifier while maintaining the body temperature at 37° C. The chest of the rats were opened at the left fifth intercostal space and the pericardium was cut open to reveal the heart. Then a solution of the test compound in a mixed solvent of polyethylene glycol 400, ethanol and a physiological saline [3:3:14 (v/v)] was administered into the femoral vein. Ten minutes after the administration of the compound, the origin of the left coronary artery was occluded. After occlusion for 5 minutes, reperfusion was carried out for 10 minutes and a duration (second) of a ventricular fibrillation after reperfusion was measured from the electrocardiogram (mean±standard error, n=3 to 10). The ventricular fibrillation was assessed in accordance with the guideline of The Lambeth Convention [Cardiovascular Research, 22, 447-455 (1988)]. On the other hand, the mixed solvent of polyethylene glycol 400, ethanol and a physiological saline [3:3:14 (v/v)] alone was used as a control and a duration (second) of the ventricular fibrillation was measured in a similar manner. Using male Sprague-Dawley rats weighing 310 to 440 g, the duration (second) of the ventricular fibrillation was measured in the same manner as in Test 1 (n=4 to 10). Using male Sprague-Dawley rats weighing 310 to 400 g, the duration (second) of the ventricular fibrillation was measured in the same manner as in Test 1 (n=4 to 6).

Assay [1] deals with myocardial infarction lesion. Kind of assay: Activity to reduce myocardial infarction lesion (rat acute myocardial infarction model). It is filed as in vivo, rat (male Sprague-Dawley rats). As to conditions: Test 2 (Table 7); 1 mg/kg, femoral vein; control 45.2 ± 4.1; **: p < 0.01. How it is done:
Using a rat acute myocardial infarction model, the compounds of the present invention were assessed for their activity to reduce myocardial infarction lesion in accordance with the method of Petty et al. [European Journal of Pharmacology, 192, 383-388 (1991)]. Male Sprague-Dawley rats (weighing 320 to 430 g) were anesthetized by intraperitoneal administration of sodium pentobarbital (50 mg/kg). Under anesthesia, the rats were cannulated via trachea and the cannula was linked to a respirator and then the body temperature was maintained at 37° C. The chest of the rats were opened at the left fifth intercostal space and the pericardium was cut open to reveal the heart. Then a solution of the test compound in a mixed solvent of polyethylene glycol 400, ethanol and a physiological saline [3:3:14 (v/v)] was administered into the femoral vein. Ten minutes after the administration of the compound, the origin of the left coronary artery was occluded. After occlusion for 30 minutes, reperfusion was carried out for 2 hours. After reperfusion, the heart was removed and the origin of the left coronary artery was ligated again. The heart was cannulated via the aorta and a 0.025% solution of Evans blue was perfused using a syringe pump to distinguish an ischemic region (not stained with Evans blue) and a non-ischemic region (stained with Evans blue). The ischemic region was incubated in a 0.1% triphenyltetrazolium chloride (TTC) solution at 37° C. for 30 minutes to distinguish a TTC-stained region and a non-stained region (infarction region).

SMILES strings stand for the structures.

T1 sequence (P26431 whole entry): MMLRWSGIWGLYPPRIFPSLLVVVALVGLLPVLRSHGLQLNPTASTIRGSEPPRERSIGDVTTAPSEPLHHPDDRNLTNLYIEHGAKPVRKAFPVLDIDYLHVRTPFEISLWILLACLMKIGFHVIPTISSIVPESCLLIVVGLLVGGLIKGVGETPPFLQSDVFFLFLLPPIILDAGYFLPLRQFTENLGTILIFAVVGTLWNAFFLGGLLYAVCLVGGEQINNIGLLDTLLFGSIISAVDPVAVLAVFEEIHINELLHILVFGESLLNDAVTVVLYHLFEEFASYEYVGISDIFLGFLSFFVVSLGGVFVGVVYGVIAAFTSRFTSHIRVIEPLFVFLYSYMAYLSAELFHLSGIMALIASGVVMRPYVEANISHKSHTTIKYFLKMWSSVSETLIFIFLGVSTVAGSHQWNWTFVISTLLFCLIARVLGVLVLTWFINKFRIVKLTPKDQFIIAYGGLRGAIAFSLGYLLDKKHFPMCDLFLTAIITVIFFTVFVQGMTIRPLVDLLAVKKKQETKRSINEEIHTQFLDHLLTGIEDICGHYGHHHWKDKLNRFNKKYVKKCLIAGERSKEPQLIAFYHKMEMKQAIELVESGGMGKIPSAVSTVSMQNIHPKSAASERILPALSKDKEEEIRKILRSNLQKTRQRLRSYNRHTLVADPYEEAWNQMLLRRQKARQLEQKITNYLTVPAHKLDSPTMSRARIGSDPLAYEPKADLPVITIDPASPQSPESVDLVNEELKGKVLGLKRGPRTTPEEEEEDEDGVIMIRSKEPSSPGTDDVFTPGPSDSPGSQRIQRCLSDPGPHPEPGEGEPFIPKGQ

`CC[C@H]1Oc2cc(C(=O)NC(=N)N)ccc2N(C(C)C)C1=O.CS(=O)(=O)O` [Example 19, (R)-N-Amidino-2-ethyl-4-(2-propyl)-3-oxo-3,4-dihydro-2H-1,4-benzoxazine-7-carboxamide methanesulfonate]: on Na^+ /H^+ exchange, half-maximal inhibition (IC50) was put at 44 nM. Further, the “Duration (second) of ventricular fibrillation (mean ± standard error)” value in the assay on reperfusion arrhythmia (0.01 mg/kg) stood at 116.8 ± 40.2 s; with reperfusion arrhythmia (0.1 mg/kg, Example 19 *: p < 0.05, Example 21 **: p < 0.01), 36.5 ± 32.2 s; in the assay on reperfusion arrhythmia (1 mg/kg, *: p < 0.05), 0.0 ± 0.0 s. Further, the “Infarction region/ischemic region (%) (mean ± standard error)” value in assay [1] worked out at 20.7 ± 5.2%.

The IC50 is the concentration that gives 50% inhibition.
